Four compounds from patent publication US9309276B2, “Synthetic lipid A derivative” (University of Georgia Research Foundation, Inc., priority 2007, dated 2016) can be followed below.

The assay concerns the target T1, murine TLR4, MD2, and CD14 (Mus musculus, UniProt Q9JHF9+Q9QUK6).
T1 construct: host or cells: HEK 293T
T1 sequence (Q9QUK6 26-835): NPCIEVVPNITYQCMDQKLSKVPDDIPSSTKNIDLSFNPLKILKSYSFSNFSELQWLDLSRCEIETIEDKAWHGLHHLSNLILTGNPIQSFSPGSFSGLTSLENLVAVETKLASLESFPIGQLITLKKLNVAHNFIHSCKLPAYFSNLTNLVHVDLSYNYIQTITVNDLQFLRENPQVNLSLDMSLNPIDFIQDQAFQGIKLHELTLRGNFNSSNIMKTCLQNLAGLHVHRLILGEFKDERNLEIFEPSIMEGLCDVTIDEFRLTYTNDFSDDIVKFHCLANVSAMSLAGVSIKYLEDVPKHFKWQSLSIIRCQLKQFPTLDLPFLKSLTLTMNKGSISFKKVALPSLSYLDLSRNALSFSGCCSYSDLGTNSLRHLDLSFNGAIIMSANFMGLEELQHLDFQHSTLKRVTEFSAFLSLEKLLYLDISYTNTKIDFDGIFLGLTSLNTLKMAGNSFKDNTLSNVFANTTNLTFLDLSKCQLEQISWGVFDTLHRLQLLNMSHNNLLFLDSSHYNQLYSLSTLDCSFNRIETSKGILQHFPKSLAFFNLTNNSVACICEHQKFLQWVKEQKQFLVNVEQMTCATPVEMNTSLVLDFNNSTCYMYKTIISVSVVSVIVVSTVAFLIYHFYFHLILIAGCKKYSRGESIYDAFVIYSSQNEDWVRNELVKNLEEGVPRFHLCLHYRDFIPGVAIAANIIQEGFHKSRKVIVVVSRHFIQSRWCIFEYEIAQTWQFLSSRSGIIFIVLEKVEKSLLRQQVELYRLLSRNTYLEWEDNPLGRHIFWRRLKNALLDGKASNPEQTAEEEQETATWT
T1 sequence (Q9JHF9 19-160): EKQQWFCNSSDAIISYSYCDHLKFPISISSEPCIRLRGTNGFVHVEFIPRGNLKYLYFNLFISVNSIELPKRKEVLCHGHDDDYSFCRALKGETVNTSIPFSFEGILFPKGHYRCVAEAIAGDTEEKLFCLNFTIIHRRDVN
The assay is described as follows: NF-κB activation (luciferase reporter) in HEK 293T cells stably transfected with murine TLR4/MD2/CD14. It counts as cell-based. As to conditions: for pEC50: 4 h exposure, dual-luciferase, best-fit value. How it is done:
Induction of NF-κB activation was determined in triplicate cultures of HEK 293T cells stably transfected with murine TLR4, MD2, and CD14 and transiently transfected with pELAM-Luc, pRL-TK, and pcDNA3 plasmids. Forty-four hours post-transfection, cells were treated with E. coli LPS or lipid A derivatives 1-5 at the indicated concentrations or were left untreated (control). Forty-eight hours post-transfection, NF-κB activation was determined by firefly luciferase activity relative to Renilla luciferase activity. In the transfection experiment shown, human TNF-α (10 ng/mL) induced 12.1±0.3-fold activation of NF-κB.
To obtain further support that the EC50 values of secreted TNF-α protein are not affected by transcriptional, translational, or protein processing processes, dose response curves for the activation of the transcription factor NF-κB were determined for each compound and the results compared with similar data for secretion of TNF-α protein. Thus, compounds 1-5, and E. coli LPS were exposed at a range of concentrations to HEK 293T cells stably transfected with […] TLR4/MD2/CD14 and transiently transfected with a plasmid containing the reporter gene pELAM-Luc (NF-κB dependent firefly luciferase reporter vector) and a plasmid containing the control gene pRL-TK (Renilla luciferase control reporter vector). As a negative control, wild type HEK 293T cells transiently transfected with plasmids containing the reporter gene pELAM-Luc and control gene pRL-TK were used. After an incubation time of 4 h, the activity was measured using a commercial dual-luciferase assay.
The day before transfection, HEK 293T wild type cells and HEK 293T cells stably transfected with murine TLR4/MD2/CD14 were plated in 96-well tissue culture plates (16,000 cells/well). The next day, cells were transiently transfected using PolyFect Transfection Reagent (Qiagen) with expression plasmids pELAM-Luc (NF-κB-dependent firefly luciferase reporter plasmid, 50 ng/well) (Chow et al., J. Biol. Chem. 1999, 274, 10689-10692) and pRL-TK (Renilla luciferase control reporter vector, 1 ng/well; Promega) as an internal control to normalize experimental variations. The empty vector pcDNA3 (Invitrogen) was used as a control and to normalize the DNA concentration for all of the transfection reactions (total DNA 70 ng/well). […] The luciferase activity was measured using the Dual-Luciferase Reporter Assay System (Promega) according to the manufacturer's instructions and the Fluoroskan Accent FL combination luminometer/fluorometer (Thermo Electron Corporation). […]
Concentration-response data were analyzed using nonlinear least-squares curve fitting in Prism (GraphPad Software, Inc.). […]
Background: A reporter such as luciferase makes a cellular process visible.

pEC50: −log10 of the molar value.

As for `CCCCCCCCCCCCCCCC(=O)O[C@H](CCCCCCCCCCCC(C)C)CC(=O)N[C@H]1[C@H](OC[C@H]2O[C@H](OP(=O)(O)O)[C@H](NC(=O)C[C@H](O)CCCCCCCCCCCC(C)C)[C@@H](O)[C@@H]2O)O[C@H](CO)[C@@H](O)[C@@H]1ONC(=O)C[C@H](O)CCCCCCCCCC(C)C` [Compound 104, 6-O-{2-Deoxy-2-[(R)-3-hexadecanoyloxy-15-methyl-hexadecanoylamino]-3-O—[(R)-3-hydroxy-13-methyl-tetradecanoylamino]-β-D-glucopyranosyl}-2-deoxy-2-[(R)-3-hydroxy-15-methyl-hexadecanoylamino]-α-D-glucopyranose 1-phosphate], the “NF-κB activation, mouse TLR4/MD2/CD14” value (Example III, 104 at 0.1, 1 and 10 μg mL−1, E. coli LPS 10 ng mL−1, 4 h) was “at high concentrations, compound 104 could induce NF-κB activation”.

The pEC50 is the EC50 on a negative log10 scale, so that one unit is a factor of ten. Take `CCCCCCCCCCCCCC(=O)OC(CCCCCCCCCCC)CC(=O)OC1C(NC(=O)CC(CCCCCCCCCCC)OC(=O)CCCCCCCCCCC)C(OCC2OC(OP(=O)(O)O)C(NC(=O)CC(O)CCCCCCCCCCC)C(OC(=O)CC(O)CCCCCCCCCCC)C2O)OC(CO)C1OP(=O)(O)O` [Lipid A 1, 6-O-{2-Deoxy-2-[(R)-3-dodecanoyloxy-tetradecanoylamino]-3-O—[(R)-3-tetradecanoyloxy-tetradecanoyl]-β-D-glucopyranosyl}-2-deoxy-3-O—[(R)-3-hydroxy-tetradecanoyl]-2-[(R)-3-hydroxy-tetradecanoylamino]-α-D-glucopyranose 1,4′-bisphosphate]: the negative logarithm of the EC50 (pEC50) is 7.42.

In the case of `CCCCCCCCCCCC(=O)OC(CCCCCCCCCCC)CC(=O)NC1C(OCC2OC(OP(=O)(O)O)C(NC(=O)CC(O)CCCCCCCCCCC)C(OC(=O)CC(O)CCCCCCCCC)C2O)OC(CO)C(OP(=O)(O)O)C1OC(=O)CC(CCCCCCCCC)OC(=O)CCCCCCCCCCC` [Lipid A 2, 6-O-{2-Deoxy-3-O—[(R)-3-dodecanoyloxy-dodecanoyl]-2-[(R)-3-dodecanoyloxy-tetradecanoylamino]-β-D-glucopyranosyl}-2-deoxy-3-O—[(R)-3-hydroxy-dodecanoyl]-2-[(R)-3-hydroxy-tetredecanoylamino]-α-D-glucopyranose 1,4′-bisphosphate], the pEC50 was 7.85.

As for `CCCCCCCCCCCCCCCC(=O)OC(CCCCCCCCCCC)CC(=O)NC1C(OP(=O)(O)O)OC(COC2OC(CO)C(OP(=O)(O)O)C(OC(=O)CC(CCCCCCCCC)OC(=O)CCCCCCCCCCC)C2NC(=O)CC(CCCCCCCCCCC)OC(=O)CCCCCCCCCCC)C(O)C1OC(=O)CC(O)CCCCCCCCC` [Lipid A 4, 6-O-{2-Deoxy-3-O—[(R)-3-dodecanoyloxy-dodecanoyl]-2-[(R)-3-dodecanoyloxy-tetradecanoylamino]-β-D-glucopyranosyl}-2-deoxy-2-[(R)-3-hexadecanoyloxy-tetredecanoylamino]-3-O—[(R)-3-hydroxy-dodecanoyl]-α-D-glucopyranose 1,4′-bisphosphate], the pEC50 was 7.28.
